From article PMC8910387, “Systematic Comparison of Beetle Luciferase-Luciferin Pairs as Sources of Near-Infrared Light for In Vitro and In Vivo Applications” (International Journal of Molecular Sciences, 2022)

How the values were obtained:
Assay in all cases: bioluminescence peak-height (V0) kinetics
Luc2 [1] = target: T1, Luc2 (Photinus pyralis, UniProt P08659); type: biochemical; conditions: Mg-ATP, O2; assay details in supplement; read-out: Km (μM) ^4
T1 construct: mammalian codon optimized P. pyralis Luc; pGEX-6P-2, E. coli BL21(DE3)pLysS, GST removed, N-terminal GlyProLeuGlySer kept; Mut51 from pET28a (His-tag)
T1 sequence (P08659 whole entry): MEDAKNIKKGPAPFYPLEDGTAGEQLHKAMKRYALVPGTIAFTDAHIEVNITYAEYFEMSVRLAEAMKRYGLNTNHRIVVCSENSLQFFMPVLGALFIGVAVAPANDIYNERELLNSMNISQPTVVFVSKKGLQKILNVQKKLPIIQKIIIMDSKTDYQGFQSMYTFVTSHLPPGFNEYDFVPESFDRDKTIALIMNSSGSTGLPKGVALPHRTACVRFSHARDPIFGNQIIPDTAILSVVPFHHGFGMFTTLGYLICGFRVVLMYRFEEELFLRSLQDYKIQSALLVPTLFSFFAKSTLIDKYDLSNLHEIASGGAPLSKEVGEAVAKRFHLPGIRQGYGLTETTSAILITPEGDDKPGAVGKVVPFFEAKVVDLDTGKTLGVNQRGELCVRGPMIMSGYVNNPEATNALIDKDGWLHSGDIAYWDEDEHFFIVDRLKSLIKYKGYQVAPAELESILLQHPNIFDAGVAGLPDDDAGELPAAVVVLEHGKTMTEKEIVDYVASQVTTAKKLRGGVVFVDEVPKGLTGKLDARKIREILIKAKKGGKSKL
Description: (§1) bioluminescence peak-height (V0) kinetics on Luc2

[2] = tested on: T2, CBR (tested as CBR2, CBR2opt); type: biochemical; conditions: Mg-ATP, O2; assay details in supplement; read-out: Km (μM) ^4
T2 construct: mouse codon optimized; pGEX-6P-2, E. coli BL21(DE3)pLysS, GST removed, N-terminal GlyProLeuGlySer kept
Description: bioluminescence peak-height (V0) kinetics on CBR (tested as CBR2, CBR2opt)

Fluc_red = target: T3, Fluc_red (Photinus pyralis, UniProt P08659, S284T/E354R/D357Y, form not given); type: biochemical; conditions: Mg-ATP, O2; assay details in supplement; read-out: Km (μM) ^4
T3 construct: pET16b, His-tag
T3 sequence (P08659 whole entry S284T/E354R/D357Y, form open): as the sequence (P08659 whole entry) above, with S284T, E354R, D357Y counted along it
Description: bioluminescence peak-height (V0) kinetics on Fluc_red

Luc2 [3] = target: T4, Luc2 (Photinus pyralis, UniProt P08659, F243M/S347G, form not given); type: biochemical; conditions: Mg-ATP, O2; assay details in supplement; Mut51, His-tagged; read-out: Km (μM) ^4
T4 construct: mammalian codon optimized P. pyralis Luc; pGEX-6P-2, E. coli BL21(DE3)pLysS, GST removed, N-terminal GlyProLeuGlySer kept; Mut51 from pET28a (His-tag)
T4 sequence (P08659 whole entry F243M/S347G, form open): as the sequence (P08659 whole entry) above, with F243M, S347G counted along it
Description: as §1

PLR3 = tested on: T5, PLR3; type: biochemical, Photinus pyralis / Luciola italica; conditions: Mg-ATP, O2; assay details in supplement; read-out: Km (μM) ^4
T5 construct: G246A/F250H in mammalian codon optimized PLR1; pGEX-6P-2, N-terminal GlyProLeuGlySer kept
Description: bioluminescence peak-height (V0) kinetics on PLR3

Compound | Km (Luc2 [1]) [µM] | Km [2] [µM] | also measured
Nc1cnc2c(ccc3nc(C4=N[C@@H](C(=O)O)CS4)sc32)c1 [NH2-QLH2] | 1.5 ± 0.2 |  | 
Nc1ccc2nc(C3=N[C@@H](C(=O)O)CS3)sc2c1 [NH2-LH2, (S)-2-(6-aminobenzo[d]thiazol-2-yl)-4,5-dihydrothiazole-4-carboxylic acid] |  | 9.5 ± 1.3 | 
O=C(O)[C@H]1CSC(/C=C/c2nc3ccc(O)cc3s2)=N1 [iLH2, (S,E)-2-(2-(6-hydroxybenzo[d]thiazol-2-yl)vinyl)-4,5-dihydrothiazole-4-carboxylic acid] | 0.13 ± 0.05 | 0.9 ± 0.08 | Km (Fluc_red): 0.17 ± 0.05 µM
O=C(O)[C@H]1CSC(c2nc3c(Br)cc(O)cc3s2)=N1 [4′-BrLuc, (S)-2-(4-bromo-6-hydroxybenzo[d]thiazol-2-yl)-4,5-dihydrothiazole-4-carboxylic acid] | 44 ± 11 |  | Km (Luc2 [3]): 2.3 ± 0.2 µM
O=C(O)[C@H]1CSC(c2nc3cc4c(cc3s2)NCC4)=N1 [CycLuc1, (S)-2-(6,7-dihydro-5H-thiazolo[4,5-f]indol-2-yl)-4,5-dihydrothiazole-4-carboxylic acid] | 0.61 ± 0.2 |  | 
O=C(O)[C@H]1CSC(c2nc3ccc(O)cc3s2)=N1 [LH2, (S)-2-(6-hydroxybenzo[d]thiazol-2-yl)-4,5-dihydrothiazole-4-carboxylic acid] |  | 250 ± 24 | 
O=C(O)[C@H]1CSC(c2nc3ccc4cc(O)cnc4c3s2)=N1 [OH-QLH2] | 1.8 ± 0.6 |  | Km (PLR3): 1.6 ± 0.1 µM
O=C(O)[C@H]1CSC(c2nc3ccc4cc(O)ccc4c3s2)=N1 [OH-NpLH2] |  | 0.93 ± 0.13 | 
Nc1ccc2c(ccc3nc(C4=N[C@@H](C(=O)O)CS4)sc32)c1 [NH2-NpLH2] | 3.3 ± 0.6 | 0.8 ± 0.1 | 
